In patent publication EP4635500A1, “THERAPEUTIC AGENT FOR BACTERIAL INFECTION” (Sumitomo Pharma Co., Ltd., priority 2022, dated 2024):
Several values for one entry are separate records, joined by “and”; a condition that tells them apart may be missing. Identical values can stand only once. Like-named read-outs stand apart in the source and are kept apart here.

How the values were obtained:
Enterobacterales = assay: MIC, broth microdilution, CDC/FDA Antibiotic Resistance Isolate Bank (Example 7, Tables 8, 11, 12); format: cell-based
A. baumannii = assay: MIC, broth microdilution, CDC/FDA Antibiotic Resistance Isolate Bank (Example 7, Tables 9, 13, 14); format: cell-based, Acinetobacter baumannii
[1] = carbapenemase-producing Enterobacterales, Metallo-β-lactamase (N = 47)
[2] = carbapenemase-producing Enterobacterales, Serine carbapenemase (N=61)

colistin
>64 µg/mL: MIC90 (Enterobacterales; [2]) | MIC (A. baumannii; KUB No. 5721, AR Bank #288) | MIC (A. baumannii; KUB No. 5736, AR Bank #303)
4 µg/mL: MIC (A. baumannii; KUB No. 5737, AR Bank #304)
64 µg/mL: MIC (Enterobacterales; Klebsiella pneumoniae, KUB No. 5760, AR Bank # 364) | MIC (Enterobacterales; Proteus mirabilis, KUB No. 5775, AR Bank # 379)
2 µg/mL: MIC80 (A. baumannii; 55 isolates of A. baumannii) | MIC90 (A. baumannii; 55 isolates of A. baumannii) | MIC (A. baumannii; A. baumannii KUB No. 5709, AR Bank #276, no carbapenemase genes (-)) | MIC (A. baumannii; KUB No. 5722, AR Bank #259) | MIC (A. baumannii; KUB No. 5729, AR Bank #296) | MIC (A. baumannii; KUB No. 5730, AR Bank #297) | MIC (A. baumannii; KUB No. 5732, AR Bank #299) | MIC (A. baumannii; KUB No. 5738, AR Bank #305) | MIC (A. baumannii; KUB No. 5740, AR Bank #307) | MIC (A. baumannii; KUB No. 5742, AR Bank #309) | MIC (A. baumannii; KUB No. 5746, AR Bank #313)
0.25 µg/mL: MIC (A. baumannii; A. baumannii KUB No. 5567, AR Bank #70, OXA-58, OXA-100)
1 µg/mL: MIC (Enterobacterales; Klebsiella pneumoniae, KUB No. 5612, AR Bank # 115) | MIC (Enterobacterales; Klebsiella pneumoniae, KUB No. 5614, AR Bank # 117) | MIC (Enterobacterales; Klebsiella pneumoniae, KUB No. 5617, AR Bank # 120) | MIC50 (A. baumannii; 55 isolates of A. baumannii) | MIC (A. baumannii; A. baumannii KUB No. 5575, AR Bank #78, OXA-71) | MIC (A. baumannii; A. baumannii KUB No. 5580, AR Bank #83, OXA-23, OXA-69, NDM-1) | MIC (A. baumannii; A. baumannii KUB No. 5585, AR Bank #88, OXA-64, NDM-1) | MIC (A. baumannii; A. baumannii KUB No. 5598, AR Bank #101, OXA-24, OXA-65) | MIC (A. baumannii; A. baumannii KUB No. 5599, AR Bank #102, OXA-66) | MIC (A. baumannii; A. baumannii KUB No. 5706, AR Bank #273, OXA-23, OXA-66) | MIC (A. baumannii; A. baumannii KUB No. 5708, AR Bank #275, OXA-23, OXA-66) | MIC (A. baumannii; A. baumannii KUB No. 5711, AR Bank #278, OXA-23, OXA-66) | MIC (A. baumannii; A. baumannii KUB No. 5712, AR Bank #279, OXA-23, OXA-66) | MIC (A. baumannii; A. baumannii KUB No. 5713, AR Bank #280, OXA-66) | MIC (A. baumannii; A. baumannii KUB No. 5714, AR Bank #281, OXA-82) | MIC (A. baumannii; A. baumannii KUB No. 5715, AR Bank #282, OXA-23, OXA-66) | MIC (A. baumannii; A. baumannii KUB No. 5716, AR Bank #283, OXA-23, OXA-66) | MIC (A. baumannii; A. baumannii KUB No. 5717, AR Bank #284, OXA-24, OXA-65) | MIC (A. baumannii; KUB No. 5719, AR Bank #286) | MIC (A. baumannii; KUB No. 5720, AR Bank #287) | MIC (A. baumannii; KUB No. 5723, AR Bank #290) | MIC (A. baumannii; KUB No. 5724, AR Bank #291) | MIC (A. baumannii; KUB No. 5725, AR Bank #292) | MIC (A. baumannii; KUB No. 5726, AR Bank #293) | MIC (A. baumannii; KUB No. 5727, AR Bank #294) | MIC (A. baumannii; KUB No. 5728, AR Bank #295) | MIC (A. baumannii; KUB No. 5733, AR Bank #300) | MIC (A. baumannii; KUB No. 5734, AR Bank #301) | MIC (A. baumannii; KUB No. 5735, AR Bank #302) | MIC (A. baumannii; KUB No. 5739, AR Bank #306) | MIC (A. baumannii; KUB No. 5741, AR Bank #308) | MIC (A. baumannii; KUB No. 5743, AR Bank #310) | MIC (A. baumannii; KUB No. 5744, AR Bank #311) | MIC (A. baumannii; KUB No. 5745, AR Bank #312)
8 µg/mL: MIC (Enterobacterales; Raoultella ornithinolvtica, KUB No. 5631, AR Bank # 134) | MIC90 (Enterobacterales; [1]) | MIC90 (Enterobacterales; metallo-β-lactamase-producing strains of Enterobacterales)
0.5 µg/mL: MIC (Enterobacterales; Klebsiella pneumoniae, KUB No. 5610, AR Bank # 113) | MIC (Enterobacterales; Klebsiella pneumoniae, KUB No. 5626, AR Bank # 129) | MIC (Enterobacterales; Klebsiella pneumoniae, KUB No. 5757, AR Bank # 361) | MIC (Enterobacterales; Klebsiella pneumoniae, KUB No. 5759, AR Bank # 363) | MIC (Enterobacterales; Klebsiella pneumoniae, KUB No. 5772, AR Bank # 376) | MIC (Enterobacterales; Salmonella Senftenberg, KUB No. 5624, AR Bank # 127) | MIC50 (Enterobacterales; [1]) | MIC50 (Enterobacterales; [2]) | MIC (A. baumannii; A. baumannii KUB No. 5707, AR Bank #274, OXA-66, OXA-72) | MIC (A. baumannii; A. baumannii KUB No. 5710, AR Bank #277, OXA-24, OXA-65) | MIC (A. baumannii; A. baumannii KUB No. 5718, AR Bank #285, OXA-24, OXA-65) | MIC (A. baumannii; KUB No. 5731, AR Bank #298)
0.5 µg/mL and 1 µg/mL: MIC (A. baumannii)
16 µg/mL: MIC (Enterobacterales; Klebsiella pneumoniae, KUB No. 5622, AR Bank # 125)
